Laboratory results reported in US6531499B2, “Matrix metalloproteinase inhibitors and method of using same” (Wisconsin Alumni Research Foundation, priority 1999, dated 2003).

Legend:
[1] = tested on: F442A fibroblast; format: cell-based; details: concentrations up to 100 μM; 6 to 24 hours in serum-free medium
Method: Toxicity of the compounds was determined by incubating several log doses of the compound and solvent controls for 6 to 24 hours in serum-free medium. The cell number was then determined by comparing the absorbance of crystal violet with controls, and cell death determined by trypan blue dye exclusion in conventional and well known fashion. The model cell line used was a murine fibroblast cell line designated F442A, which was generously provided by Dr. Howard Green of Harvard University.
The compounds were cleaved from the beads into a single solution and tested in this combined fashion.

[2] = tested on: HiMel cells; test: In vitro invasion assay: HiMel cell penetration of […] (Transwell); format: cell-based, human; details: same assay as Example 3; concentration not given
Description: An 8 μm pore filter coated with “[…]” separates a series of lower compartments containing a chemoattractant and a corresponding series of upper compartments containing metastatic and non-metastatic cells and a compound to be tested. The metastatic cells are able to degrade the “[…]” barrier and, over a period of time, migrate through the pores of the filter whereas non-metastatic cells remain on the upper surface. The cells that pass to the underside of the filter are counted under a microscope to determine the extent to which they are able to pass from the upper compartment into the lower compartment. […]
This method has been refined to increase the number of assays which may be performed and analyzed per day. […] Motility of the cells through the 8 μm filters is not by passive diffusion since the pore size is smaller than the cells, and is determined in the same chamber in the absence of “[…]”. […]
Compounds to be tested were dissolved in DMSO and were added in serial dilutions of 0 (control) 1, and 10 μM. […] Invasive cells found on the under side of the filter were measured by solubilizing the stain in 10% acetic acid 20% methanol and reading the absorbance at 595 nm.

[3] = target: T1, MMP-2 (Homo sapiens, UniProt P08253); test: Colorimetric 96-well thiopeptolide collagenase assay; format: biochemical; details: change in absorbance at 405 nm
T1 sequence (P08253 110-660): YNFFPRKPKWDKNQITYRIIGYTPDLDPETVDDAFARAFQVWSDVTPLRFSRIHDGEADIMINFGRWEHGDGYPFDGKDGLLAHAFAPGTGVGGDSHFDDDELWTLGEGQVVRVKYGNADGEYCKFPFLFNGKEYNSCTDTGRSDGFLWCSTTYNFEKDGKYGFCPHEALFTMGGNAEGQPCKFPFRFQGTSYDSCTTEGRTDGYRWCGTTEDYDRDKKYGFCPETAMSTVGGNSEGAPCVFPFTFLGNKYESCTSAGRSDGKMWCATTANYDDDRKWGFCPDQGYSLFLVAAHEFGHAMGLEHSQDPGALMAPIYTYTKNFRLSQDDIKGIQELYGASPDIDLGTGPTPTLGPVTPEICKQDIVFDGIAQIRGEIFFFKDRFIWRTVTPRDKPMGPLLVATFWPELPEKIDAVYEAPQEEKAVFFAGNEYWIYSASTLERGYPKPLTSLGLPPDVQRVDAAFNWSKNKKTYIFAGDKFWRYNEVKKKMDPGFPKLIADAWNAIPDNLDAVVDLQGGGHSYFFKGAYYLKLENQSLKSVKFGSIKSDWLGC
Method: The preferred assay method to measure MMP inhibitory activity is a colorimetric assay which can be monitored spectrophotometrically. Specifically, the ability of the subject matrix metalloproteinase inhibitors to suppress MMP-2 or MMP-9 activity is assessed using a colorimetric 96-well thiopeptolide collagenase assay as described by Xia et al. (Xia T, Akers K, Eisen A Z and Seltzer J L. (1996) Biochim et Biophy Acta. 1293:259). This protocol entails the cleavage of a thiopeptolide substrate AcProLeuGly-S-LeuGlyOC2H5 (Bachem Bioscience, Cat # H7145) by MMP-2 or MMP-9, giving a free sulfhydryl group. The free —SH then reacts with DTNB (Ellman's reagent, 5,5′-dithio-bis(2-nitrobenzoic acid)) giving a colored molecule whose formation can be examined spectrophotometrically at 405 nm.
The thiopeptolide substrate (5 μL/well, 5 mM in DMF), DTNB (15 μL/well, 10 mM in 50 mM HEPES, 10 mM CaCl2, pH 6.92), and matrix metalloproteinase inhibitors or DMSO (total volume equal to 5 μL/well) are mixed in a 96-well plate (Falcon). A single row of wells is used for each matrix metalloproteinase inhibitor and various inhibitor concentrations are used to control for row to row variation in collagenase activity. The reaction is then initiated by pipeting 130 μL of a solution of collagenase buffer (126 μL/well, 50 mM HEPES, 10 mM CaCl2, pH 6.92) and activated MMP-2 or MMP-9 (4 μL/well, 0.05 M borate, pH 7.46, 5 mM CaCl2 , 20% glycerol, 0.0005% Brij-35) into a row of wells using a 12-channel multipipeter. The change in absorbance from 0-20 minutes is then monitored at 405 nm using an ELX 800 automated microplate reader (Bio-Tek Instruments, Inc., Winooski, Vt.). The change in absorbance is calculated and graphed.
The thiopeptolide substrate AcProLeuGly-S-LeuGlyOC2H5 (5 μL/well, 5 mM in DMF), DTNB (15 μL/well, 10 mM in 50 mM HEPES, 10 mM CaCl2, pH 6.92), and matrix metalloproteinase inhibitors or DMSO (total volume equal to 5 μL/well) were mixed in a 96-well plate. A single row of wells was used for each concentration of the test compound and concentrations of 10, 20, and 40 μM of the test compound were used. The reaction was then initiated by pipeting 130 μL of a solution of collagenase buffer (126 μL/well, 50 mM HEPES, 10 mM CaCl2, pH 6.92) and activated MMP-2 (4 μL/well, 0.05 M borate, pH 7.46, 5 mM CaCl2, 20% glycerol, 0.0005% Brij-35) into a row of wells using a 12-channel multipipeter. The change in absorbance from 0-20 minutes was then monitored at 405 nm. The change in absorbance was calculated and graphed; the results are depicted in FIG. 4.

[4] = 0 (control), 40, 80, and 160 μM

Row | SMILES | effect on the growth / viability of fibroblasts [1] | inhibition of HiMel MATRIGEL invasion as compared to the control [2] | inhibition of MMP-2 collagenase activity ([3]; 10, 20, and 40 μM, 0-20 minutes) | inhibition of MMP-2 collagenase activity [3, 4]
1 | O=C(CN(Cc1ccccc1)C(=O)CN(CCCc1ccccc1)C(=O)Nc1ccc(Oc2ccccc2)cc1)NO | no significant effect | approximately 50% | inhibited MMP-2 collagenase activity in a dose-dependent manner | –
2 | O=C(CN(CCCCc1ccccc1)C(=O)CN(CCCc1ccccc1)C(=O)Nc1ccc(Oc2ccccc2)cc1)NO | no significant effect | – | – | inhibits MMP-2 collagenase activity in a dose-dependent fashion
3 | NC(=O)CN(Cc1ccccc1)C(=O)CN(CCCc1ccccc1)C(=O)Nc1ccc(Oc2ccccc2)cc1 | – | – | – | inhibits MMP-2 collagenase activity in a dose-dependent fashion
4 | O=C(Nc1ccc(Oc2ccccc2)cc1)Nc1ccc(Oc2ccccc2)cc1 | – | – | – | inhibits MMP-2 collagenase activity in a dose-dependent fashion
5 | O=C(Nc1ccc(Oc2ccccc2)cc1)Nc1ccc(-c2ccccc2)cc1 | – | approximately 50% | – | inhibits MMP-2 collagenase activity in a dose-dependent fashion
